21 compounds from patent publication US20220354825A1, “PHARMACEUTICAL COMPOSITION FOR PREVENTION OR TREATMENT OF INFLAMMATORY DISEASES COMPRISING NAPHTHOQUINONE DERIVATIVE” (LMITO THERAPEUTICS INC., priority 2019, published 2022) can be followed below.

One experiment concerns the target NQO1 (Homo sapiens, UniProt P15559). The experiment is described as follows: In vitro NQO1 enzyme activity assay (cytochrome C reduction). The class given is biochemical. The following applies: NQO1 2 ng. The protocol:
In order to evaluate the enzymatic activities of compounds on NQO1, the experiments were performed as follows:
A compound to measure NQO1 enzyme activity was dissolved in DMSO to prepare a 10 mM stock solution, which was then diluted with DMSO to prepare a working solution at a concentration of 250 μM. For an enzyme reaction solution, 50 μL of 1.54 mM cytochrome C solution was added to 900 μL of 50 mM Tris-HCl (pH 7.5) solution containing 0.14% BSA, and then the prepared working solution at 250 μM was added. After adding 20 μL of 100 ng/ml NQO1 protein, […] solution was added so as to adjust the total volume to 1 mL, and then the change of absorbance was measured at 550 nm for 10 minutes. The change of absorbance was measured at 550 nm for 10 minutes using 1 mL cuvette. The reaction rate was observed through the increase in absorbance as cytochrome C was reduced at 550 nm for 10 minutes, to obtain an absorbance value, and the activity for NQO1 was measured as the reduced amount of cytochrome C (nmol reduced cytochrome C/min/μg NQO1 protein).
Absorption coefficient of Cytochrome C: 21.1 (μmol/mL)-1 cm^−1
Equipment=Cary 100 UV-Vis Spectrophotometer

Experiment [1] deals with primary bone marrow-derived macrophages (BMDMs). Nature of the experiment: NAD+/NADH measurement in macrophages after LPS/ATP. The conditions noted are these: LPS/ATP + 1, 5, 10 μM compound. The class given is cell-based, C57BL/6 mouse. Here is the method:
The primary bone marrow-derived macrophages (BMDMs) isolated from C57BL/6 mouse were incubated in DMEM medium involving macrophage colony-stimulating factor (M-CSF; R&D Systems, 416-ML) during 3 to 5 days. NAD^+ production and NAD^+/NADH ratio was measured in isolated BMDMs through using NAD/NADH Assay Kit(ab65348) supplied by Abcam company. All assays were performed according to the manufacturer's product manual.
FIGS. 6 to 10 show NAD^+/NADH ratio changes in the macrophage when treated with compounds 6, 16, 17, and 27 respectively (in order from left in the figure: Untreatment, LPS/ATP, LPS/ATP+1 μM compound, LPS/ATP+5 μM compound, and LPS/ATP+10 μM).

The test system is the same in experiment [2]. The experiment is described as follows: NAD+ measurement in macrophages after LPS/ATP. The class given is cell-based, C57BL/6 mouse. The conditions noted are these: LPS/ATP + 1, 5, 10 μM compound. The protocol: The primary bone marrow-derived macrophages (BMDMs) isolated from C57BL/6 mouse were incubated in DMEM medium involving macrophage colony-stimulating factor (M-CSF; R&D Systems, 416-ML) during 3 to 5 days. NAD^+ production and NAD^+/NADH ratio were measured in isolated BMDMs through using NAD/NADH Assay Kit(ab65348) supplied by Abcam company. All assays were performed according to the manufacturer's product manual.
FIGS. 1 to 5 show NAD^+ changes in the macrophage when treated with compounds 6, 16, 17, 22 and 27 respectively (in order from left in the figure: Untreatment, LPS/ATP, LPS/ATP+1 μM compound, LPS/ATP+5 μM compound, and LPS/ATP+10 μM compound).

NQO1, sequence (P15559 whole entry, species assumed): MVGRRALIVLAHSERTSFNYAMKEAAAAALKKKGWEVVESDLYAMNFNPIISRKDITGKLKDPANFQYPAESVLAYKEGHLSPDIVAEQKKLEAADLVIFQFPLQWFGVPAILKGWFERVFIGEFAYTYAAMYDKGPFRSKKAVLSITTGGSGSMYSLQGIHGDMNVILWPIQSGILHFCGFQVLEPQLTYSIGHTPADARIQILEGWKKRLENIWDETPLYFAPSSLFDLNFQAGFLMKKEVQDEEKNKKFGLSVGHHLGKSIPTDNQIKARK

In the case of `COc1nn(-c2ccccc2)c2c1C(=O)C(=O)c1cc(N)ccc1-2` [Compound 24], the “NQO1 Activity” value on NQO1 (Compound 0.2 μM) was 4336 nmol of reduced Cytochrome C/min/μg NQO1 Protein.
On the same count and under the same terms, for `CC(C)Oc1nn(-c2ccccc2)c2c1C(=O)C(=O)c1ccccc1-2` [Compound 2] the value was 3531 nmol of reduced Cytochrome C/min/μg NQO1 Protein; for `CCn1c(=O)c2c(n1-c1ccccc1)-c1ccccc1C(=O)C2=O` [Compound 7], 2246 nmol of reduced Cytochrome C/min/μg NQO1 Protein; for `Cn1c(=O)c2c(n1-c1ccccc1)-c1ccc(F)cc1C(=O)C2=O` [Compound 21], 1426 nmol of reduced Cytochrome C/min/μg NQO1 Protein.
Still for that read-out and setting: under `COc1cn(-c2ccccc2)c2c1C(=O)C(=O)c1cc([N+](=O)[O-])ccc1-2` [Compound 23] stands 456 nmol of reduced Cytochrome C/min/μg NQO1 Protein; under `CCOc1nn(-c2ccccc2)c2c1C(=O)C(=O)c1ccccc1-2` [Compound 8], 3768 nmol of reduced Cytochrome C/min/μg NQO1 Protein.
On to `COc1nn(C(C)C)c2c1C(=O)C(=O)c1ccccc1-2` [Compound 17], for which the “NAD+/NADH ratio” value in experiment [1] was “increased in dose-dependent manner”. The “NAD+ production” value in experiment [2] is given as “increased in dose-dependent manner”. In addition, the “NQO1 Activity” value on NQO1 (Compound 0.2 μM) was 5843 nmol of reduced Cytochrome C/min/μg NQO1 Protein.
Consider `COc1nn(-c2ccc(F)cc2)c2c1C(=O)C(=O)c1ccccc1-2` [Compound 19], for which, at NQO1 (Compound 0.2 μM), the “NQO1 Activity” value is 4303 nmol of reduced Cytochrome C/min/μg NQO1 Protein.
As for `COc1nn(-c2ccccc2)c2c1C(=O)C(=O)c1cc(F)ccc1-2` [Compound 22], the “NAD+/NADH ratio” value in experiment [1] is listed as “increased in dose-dependent manner”. The “NAD+ production” value in experiment [2] is on record as “increased in dose-dependent manner”. Also, the “NQO1 Activity” value on NQO1 (Compound 0.2 μM) was 6978 nmol of reduced Cytochrome C/min/μg NQO1 Protein.
Take `CC(C)CCn1c(=O)c2c(n1-c1ccccc1)-c1ccccc1C(=O)C2=O` [Compound 11]: the “NQO1 Activity” value at NQO1 (Compound 0.2 μM) is listed as 2839 nmol of reduced Cytochrome C/min/μg NQO1 Protein.
Consider `O=C1C(=O)c2c(n(-c3ccccc3)[nH]c2=O)-c2ccccc21` [Compound 1], for which the “NQO1 Activity” value at NQO1 (Compound 5 μM) is 180 nmol of reduced Cytochrome C/min/μg NQO1 Protein.
Consider `Cn1c2c(c(=O)n1-c1ccccc1)C(=O)C(=O)c1ccccc1-2` [Compound 20], for which the “NQO1 Activity” value at NQO1 (Compound 0.2 μM) is on record as 568 nmol of reduced Cytochrome C/min/μg NQO1 Protein.
Consider `Cn1c(=O)c2c(n1-c1ccccc1)-c1ccccc1C(=O)C2=O` [Compound 5], for which the “NQO1 Activity” value at NQO1 (Compound 5 μM) was 2602 nmol of reduced Cytochrome C/min/μg NQO1 Protein.
Turning to `CC(C)COc1nn(-c2ccccc2)c2c1C(=O)C(=O)c1ccccc1-2` [Compound 10], the “NQO1 Activity” value at NQO1 (Compound 0.2 μM) is 3455 nmol of reduced Cytochrome C/min/μg NQO1 Protein.
For the compound `CC(C)n1c2c(c(=O)n1C)C(=O)C(=O)c1ccccc1-2` [Compound 16], the “NAD+/NADH ratio” value in experiment [1] is “increased in dose-dependent manner”. In addition, the “NAD+ production” value in experiment [2] is “increased in dose-dependent manner”. Besides, the “NQO1 Activity” value on NQO1 (Compound 0.2 μM) was 4441 nmol of reduced Cytochrome C/min/μg NQO1 Protein.
On to `CC(C)CCOc1nn(-c2ccccc2)c2c1C(=O)C(=O)c1ccccc1-2` [Compound 12], for which the “NQO1 Activity” value on NQO1 (Compound 0.2 μM) was 2981 nmol of reduced Cytochrome C/min/μg NQO1 Protein.
The same measure, in the same setting: under `CC(C)n1c(=O)c2c(n1-c1ccccc1)-c1ccccc1C(=O)C2=O` [Compound 13] stands 2137 nmol of reduced Cytochrome C/min/μg NQO1 Protein; under `COc1nn(-c2ccc(C(F)(F)F)cc2)c2c1C(=O)C(=O)c1ccccc1-2` [Compound 18], 4232 nmol of reduced Cytochrome C/min/μg NQO1 Protein.
As for `CC(C)Cn1c(=O)c2c(n1-c1ccccc1)-c1ccccc1C(=O)C2=O` [Compound 9], the “NQO1 Activity” value on NQO1 (Compound 0.2 μM) was 2474 nmol of reduced Cytochrome C/min/μg NQO1 Protein.
Turning to `COc1cn(-c2ccccc2)c2c1C(=O)C(=O)c1cc(Br)ccc1-2` [Compound 25], on NQO1 (Compound 0.2 μM), the “NQO1 Activity” value is on record as 1676 nmol of reduced Cytochrome C/min/μg NQO1 Protein.
Take `CC(C)n1c(=O)c2c(n1C)-c1ccccc1C(=O)C2=O` [Compound 3]: the “NQO1 Activity” value on NQO1 (Compound 5 μM) is 3066 nmol of reduced Cytochrome C/min/μg NQO1 Protein.
